Source: patent US9340506B2, “Acetamide derivatives as glucokinase activators, their process and medicinal applications” (ADVINUS THERAPEUTICS LIMITED, priority 2007, dated 2016)
pEC50: −log10 of the molar value.

What was measured:
[1] = target: purified human recombinant GK (Homo sapiens (Human), UniProt P35557); assay: Glucokinase activity assay (coupled enzymatic, G6PD/NADH absorbance at 340 nm); assay type: biochemical; conditions: for pEC50: EC50 of % change in S0.5 of glucokinase for glucose, sigmoidal fit, read-out: EC50 (with respect to % ΔS0.5); for Emax: Emax of % change in S0.5 of glucokinase for glucose, vehicle S0.5 = 0%, 0 mM glucose = 100%, read-out: % Emax (with respect to % ΔS0.5)
Source text: The glucokinase (GK) assay is a coupled enzymatic assay. GK catalyzes the first step of glycolysis, the conversion of glucose to glucose-6-phosphate (G6P) in the presence of ATP. G6P in turn is converted by glucose-6-phosphate dehydrogenase (G6PD) to 6-phosphogluconate, a process that requires NAD, resulting in NADH formation. Since the GK-catalyzed step is the rate-limiting step of this coupled enzymatic process, the rate of accumulation of 6-phosphogluconate and NADH is directly proportional to the rate of glucose phosphorylation by GK. The rate of the GK-catalyzed reaction can therefore be measured by monitoring the increase in NADH absorbance at 340 nm.
The assay is carried out according to the protocol outlined in Hariharan et al (1997), Diabetes 46: 11-16. Briefly, the test compounds are incubated in a reaction mix containing 25 mM HEPES (pH 7.2), 10 mM MgCl2, 100 mM KCl, 5 mM ATP, 2 mM DTT, 0.5 mM NAD, 1 U/mL Leuconostoc mesenteroides G6PD, 0.3 U/mL of purified human recombinant GK, and different concentrations of glucose. Enzymatic activity is calculated from the initial reaction velocity, measured from the change in NADH absorbance as a function of time.
Compounds described in formula (I), in concentration ranges from 1.0 nM to 500 μM, are tested in the purified human recombinant glucokinase assay described above.
A compound is considered to be a glucokinase activator if it, in its testable range of concentrations, yields a higher rate of glucose phosphorylation than in its absence at a particular glucose concentration, for example at 5 mM glucose.
Compounds of general formula (I) are tested in the in vitro GK enzymatic assay to monitor dose-dependent effect on glucokinase activation (in kinetic mode), as described above, at various glucose concentrations. The S0.5 of glucokinase for glucose at different concentration of each compound of interest is calculated from the following modified version of the Michaelis-Menten equation, V=Vmax [S]^n/(S0.5^n+[S]^n), where [S] is the glucose concentration and n is the Hill coefficient (taken as 1.7 to account for the sigoidal kinetics of glucokinase with respect to glucose). The S0.5 is plotted against the log of the compound concentration. The change in the S0.5 of glucokinase (ΔS0.5) for glucose is calculated by subtracting the S0.5 at each concentration of the compound from the S0.5 in the vehicle control. The ΔS0.5 is then normalized to a percent scale, where the S0.5 in the vehicle control is set to 0% and 0 mM glucose is set to 100%. The % ΔS0.5 is then plotted against the log of the compound concentration. The EC50 and Emax of % change in S0.5 is obtained from the sigoidal fit of the data. Detailed protocol has been described in our copending application no. 409/CHE/2007 which is incorporated herein by reference. Characterization data of some representative glucokinase activators of the present disclosure, which are illustrative but not limiting, are given in table I below.

primary rat hepatocytes = assay: Glycogen synthesis in primary rat hepatocytes; assay type: cell-based; conditions: Hepatocyte, 10 μM concentration, primary hepatocytes from male Wistar rats, D-[U14C]-glucose, 3 hours, read-out: Glycogen synthesis, fold increase over DMSO control
Experimental: The glycogen deposition assay was carried out with few modifications in the original protocol as described in “Biochem J. 1990 Feb. 15; 266(1): 91-102”. In brief, primary hepatocytes were collected from male Wistar rats, and were seeded in a 48-well plate at a density of 150,000 cells/well in Minimal Essential Medium (MEM) containing 10% foetal calf serum (FCS) 100 nM insulin and 10 nM dexamethasone. followed by incubation for 4 hours at 37° C. The medium was replaced with fresh MEM containing 10% FCS and 10 nM dexamethasone and the cells were further incubated for 16 hours at 37° C. Following day, the medium was replaced with fresh MEM (serum-free) containing 2 μCi/ml of D-[U^14C]-glucose in the presence of the test compound. Hepatocytes were incubated for 3 hours at 37° C. followed by washing with 150 mM NaCl. Cells were lysed with 0.1 N NaOH, and the lysate was precipitated with 80% w/v trichloroacetic acid (TCA). Cell debris was pelleted by centrifugation, the supernatant was removed, and the glycogen was precipitated with 66% ethanol followed by drying overnight. Samples were dissolved in MiliQ water and transferred to 96 well reading plate, 100 μL scintillant was added per well and the plate was read in scintillation counter (MicroBeta Trilux, Perkin Elmer). Data was expressed as fold increase in glycogen synthesis over DMSO control (untreated hepatocytes).

[2] = animal efficacy models; PSN-GK1 at higher dose; cited from earlier work

Chain of purified human recombinant GK (P35557 whole entry): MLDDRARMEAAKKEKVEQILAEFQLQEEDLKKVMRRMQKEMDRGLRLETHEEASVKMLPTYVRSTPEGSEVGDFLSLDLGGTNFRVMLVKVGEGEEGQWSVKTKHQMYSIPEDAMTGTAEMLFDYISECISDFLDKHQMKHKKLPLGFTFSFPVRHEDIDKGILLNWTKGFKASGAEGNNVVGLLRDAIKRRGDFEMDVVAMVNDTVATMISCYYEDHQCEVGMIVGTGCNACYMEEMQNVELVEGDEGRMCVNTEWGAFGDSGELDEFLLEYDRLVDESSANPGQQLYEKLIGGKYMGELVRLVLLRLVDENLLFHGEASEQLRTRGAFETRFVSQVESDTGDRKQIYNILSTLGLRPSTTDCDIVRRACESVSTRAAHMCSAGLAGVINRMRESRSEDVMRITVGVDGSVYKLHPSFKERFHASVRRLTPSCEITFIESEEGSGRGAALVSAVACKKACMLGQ

Compound	pEC50 [1]	Emax [1]	fold induction at 10 µM (primary rat hepatocytes)	Hypoglycemia in animal studies [2]
Cc1ccc(Oc2cnc(NC(=O)C(OC3CCOCC3)c3ccc(S(=O)(=O)C4CC4)cc3)s2)cc1C(=O)O (single isomer, unassigned; (+)) [Example G10A, (+)5-[2-[[2-(4-cyclopropylsulfonylphenyl)-2-tetrahydropyran-4-yloxy-acetyl]amino]thiazol-5-yl]oxy-2-methyl-benzoic acid]	6.64	93%	> 2.5	–
O=C(O)c1cc(Oc2cnc(NC(=O)C(OC3CCOCC3)c3ccc(S(=O)(=O)C4CC4)cc3)s2)ccc1F (single isomer, unassigned; (+)) [Example G16A, (+)5-[2-[[2-(4-cyclopropylsulfonylphenyl)-2-tetrahydropyran-4-yloxy-acetyl]amino]thiazol-5-yl]oxy-2-fluoro-benzoic acid]	6.57	93%	> 2.5	–
O=C(Nc1ncc(Oc2cccc(CO)c2)s1)C(OC1CCOCC1)c1ccc(S(=O)(=O)C2CC2)cc1 (single isomer, unassigned; (+)) [Example G20A, (+)2-(4-cyclopropylsulfonylphenyl)-N-[5-[3-(hydroxymethyl)phenoxy]thiazol-2-yl]-2-tetrahydro-pyran-4-yloxy-acetamide]	7.19	93%	> 2.5	–
O=C(O)c1ccc(NC(=O)C(Oc2ccc(F)cc2F)c2ccc(S(=O)(=O)C3CC3)cc2)nc1 (single isomer, unassigned; (-)) [Example G15A, (−)6-[[2-(4-cyclopropylsulfonylphenyl)-2-(2,4-difluorophenoxy)acetyl]amino]pyridine-3-carboxylic acid]	6.32	90%	> 2.5	–
O=C(Nc1ncc(F)s1)[C@H](CC1CCOCC1)c1ccc(S(=O)(=O)C2CC2)cc1 [PSN-GK1]	–	–	–	hypoglycemic potential
Ro-28-1675	–	–	–	cause hypoglycemia

Continued, in another order:

pEC50 [1]	Emax [1]	Compound	fold induction at 10 µM (primary rat hepatocytes)	Hypoglycemia in animal studies [2]
6.70	95%	O=C(O)c1cccc(Oc2cnc(NC(=O)C(O[C@H]3CCOC3)c3ccc(S(=O)(=O)C4CC4)cc3)s2)c1 (single isomer, unassigned; (+)) [Example G25A]	> 2.5	–
6.74	94%	O=C(O)c1cccc(Oc2cnc(NC(=O)C(OC3CCOCC3)c3ccc(S(=O)(=O)C4CCCC4)cc3)s2)c1 (single isomer, unassigned; (+)) [Example G26A, (+)-3-[2-[[2-(4-cyclopentylsulfonylphenyl)-2-tetrahydropyran-4-yloxy-acetyl]amino]thiazol-5-yl]oxybenzoic acid]	> 2.5	–
6.89	95%	O=C(O)c1cccc(Oc2cnc(NC(=O)C(OC3CCOCC3)c3ccc(S(=O)(=O)C4CCCC4)nc3)s2)c1 (single isomer, unassigned; (+)) [Example G27A, (+)-3-[2-[[2-(6-cyclopentylsulfonyl-3-pyridyl)-2-tetrahydropyran-4-yloxy-acetyl]amino]thiazol-5-yl]oxybenzoic acid]	> 2.5	–
